From patent US7659071B2, “Methods and compositions relating to HPV-associated pre-cancerous and cancerous growths, including CIN” (Board of Regents, the University of Texas System, priority 2001, dated 2010)
Several values for one entry are separate records, joined by “and”; a condition that tells them apart may be missing. Equal entries are not always repeated.

Legend:
[1] = test system: PBMC; experiment: T-cell proliferation assay ([3H]thymidine incorporation, stimulation index); type: cell-based, human
Procedure: The proliferative responses of PBMCs from different samples can be determined by the standard ^3[H]thymidine incorporation assay as described in published articles (Nehete, 1996; Nehete, 1995). The significance of T-cell proliferative responses to the individual E6 and E7 peptides (in terms of stimulation index [SI]) can be calculated as the fold increase of ^3[H]thymidine incorporation by cells exposed to the peptide over that by the control to which no peptide was added. An SI value of at least 2.0, including at least about 2.1, 2.2, 2.3, 2.4, 2.5, 2.6, 2.7, 2.8, 2.9, 3.0, 3.1, 3.2, 3.3, 3.4, 3.5, 3.6, 3.7, 3.8, 3.9, 4.0 or more, which are considered positive responses. Generally, an SI value is calculated by measuring the amount of radioactivity (cpm) in media from cells incubated with the peptide(s) and dividing by the amount of radioactivity in media from cells not incubated with peptide(s) (media alone).
Heparinized blood was collected from the study participants by venipuncture. PBMCs were isolated by centrifugation on a Ficoll-Hypaque density gradient ([…]; Sigma Chemical Co., St. Louis, Mo.). The proliferative responses of PBMC from different individuals after stimulation with PHA, c-mos peptide, or individual E6 and E7 peptides (Table 4) were determined using the [^3H]thymidine incorporation assay as previously described Nehete et al., 1996). Briefly, each sample was seeded in triplicate in 96-well microtiter plates and incubated for 7 days at 37° C. in a humidified 5% CO2 atmosphere. During the final 16-18 h, 1 μCi of ^3[H]thymidine (6.7 Ci/mmol; ICN Biomedicals, Inc., Costa Mesa, Calif.) was added. The cells were harvested onto filter strips to estimate ^3[H]thymidine incorporation. The specific radioactivity of cells treated with various additions was calculated in each case by subtracting the counts per minute (cpm) values obtained with cells cultured in medium alone. […] The significance of T-cell proliferative responses to the individual E6 and E7 peptides (in terms of stimulation index [SI]) was calculated as the fold increase of [^3H]thymidine incorporation by cells exposed to the peptide over that by the control to which no peptide was added. An SI value ≧3.0, which was considered a positive response, was used for all statistical analyses to determine the significance of proliferative responses and the association with disease-free or disease-recurrence status.

[2] = test system: PBMC; experiment: Cytokine analysis of PBMC culture supernatants (Cytoscreen immunoassay kits); type: cell-based, human; conditions: 48 h; for IL-4 production, number of patients positive/number tested: positive = above kit sensitivity 2.0 pg/ml; for IL-10 production, number of patients positive/number tested: positive = above kit sensitivity 5.0 pg/ml; for EL-12 production, number of patients positive/number tested: positive = above kit sensitivity IL-12 = 1.0 pg/ml; for IFN-γ production, number of patients positive/number tested: positive = above kit sensitivity 4.0 pg/ml; for EL-2 production, number of patients positive/number tested: positive = above kit sensitivity IL-2 = 8.7 pg/ml
Procedure: Cryopreserved PBMC were used for these assays. The PBMC (1×10^5) were incubated with various HPV peptides in RPMI-1640 medium (containing 10% fetal calf serum) in triplicate wells of 96-well round-bottom plates for 48 h at 37° C. Supernatants (100 μl) were removed from each well after centrifugation and stored frozen at −70° C. in another 96-well plate. The plates were then thawed and the supernatants assayed for various cytokines (IFN-γ, IL-2, IL-4, IL-10, and IL-12) using the Cytoscreen immunoassay kits (Biosource International, Camarillo, Calif.) according to the manufacturer's instructions.

Row | Sequence | stimulation index (SI), proliferative response ([1]; women in the four study groups) | level of proliferative responses compared with the other peptides [1] | Proliferative Response No (SI < 3.0) to specific peptide, number (%) of women ([1]; Group 3 (disease-free), n = 22) | Proliferative Response No (SI < 3.0) to specific peptide, number (%) of women ([1]; Group 4 (recurrence), n = 10) | IL-4 production, number of patients positive/number tested ([2]; Group 3 (n = 8)) | IL-10 production, number of patients positive/number tested ([2]; Group 3 (n = 8)) | EL-12 production, number of patients positive/number tested ([2]; Group 3 (n = 8)) | IL-4 production, number of patients positive/number tested ([2]; Group 4 (n = 6)) | IFN-γ production, number of patients positive/number tested ([2]; Group 4 (n = 6)) | IL-10 production, number of patients positive/number tested ([2]; Group 4 (n = 6)) | EL-2 production, number of patients positive/number tested ([2]; Group 4 (n = 6)) | EL-12 production, number of patients positive/number tested ([2]; Group 4 (n = 6))
1 | STRTPEDSNSLGT (Murine) [c-mos peptide, peptide from the c-mos protooncogene, aa 158-170, used as a negative control, reference compound] | < 2.0 | – | – | – | – | – | – | – | – | – | – | –
2 | VYDFAFRDLC (listed as Human papillomavirus) [V10C, E6 peptide from HPV-16, aa 49-58] | – | higher levels of proliferative responses | 11 (50%) | 10 (100%) | – | – | – | – | – | – | – | –
3 | QLLRREVYDFAFRDL (listed as Human papillomavirus) [Q15L, E6 peptide from HPV-16, aa 43-57] | – | higher levels of proliferative responses | 11 (50%) | 10 (100%) | none and 0/8 | 3 and 3/8 | 3 of 8 and 3/8 | 1 of the 6 and 1/6 | 0/6 | 5 of 6 and 5/6 | 0/6 | 0/6
4 | RAHYNIVTF (listed as Human papillomavirus) [R9F, E7 peptide from HPV-16, aa 49-57] | – | higher levels of proliferative responses | 12 (54%) | – | – | – | – | – | – | – | – | –
5 | QAEPDRAHYNIVTFCCKCD (listed as Human papillomavirus) [Q19D, E7 peptide from HPV-16, aa 44-62] | – | higher levels of proliferative responses | 9 (41%) | 10 (100%) | none and 0/8 | 3 and 3/8 | 6 of 8 and 6/8 | 1 of the 6 and 1/6 | 0/6 | 6 of 6 and 6/6 | 0/6 | 1/6
